Columns and labels:
HeLa cells [1] = experiment: Evaluation of autophagy by fluorescence microscopy with Cyto-ID autophagy detection kit; type: cell-based; settings: culture for 1 day, fluorescence intensity same as rapamycin of the kit as reference
Method: (§1) The cells were cultured at 37° C. under 5% CO2. The culture medium used was D-MEM (Invitrogen-Gibco) to which 10% fetal bovine serum was added.
(§2) After culture for 1 day, the range in which autophagy occurred was measured by fluorescence microscopic observation using a Cyto-ID (registered trademark) autophagy detection kit (Cosmo Bio Co., Ltd.). […] Similarly, the 50% cell mortality concentration was also determined from the slope using a Cell Counting Kit-8 (Dojindo Laboratories Co., Ltd.), which is kit for measuring cell counts.

HeLa cells [2] = settings: for 50% cell mortality concentration: culture for 1 day, determined from the slope, Cell Counting Kit-8
Method: as §1, §2

Compound | concentration inducing autophagy equal to rapamycin reference (HeLa cells [1]) | 50% cell mortality concentration (HeLa cells [2]) | toxicity among the pyrroloquinoline quinone species (in words) (HeLa cells [2]; conclusion from Table 1)
O=C(O)c1cc(C(=O)O)c2c(n1)C(=O)C(=O)c1cc(C(=O)O)[nH]c1-2 [Example 1, Disodium 4,5-Dioxo-4,5-dihydro-1H-pyrrolo[2,3-f]quinoline-2,7,9-tricarboxylic Acid] | 0.8 mg/L | 123 mg/L | 
COC(=O)c1cc(C(=O)OC)c2c(n1)C(=O)C(=O)c1cc(C(=O)OC)[nH]c1-2 [Example 2, Trimethyl 4,5-Dioxo-4,5-dihydro-1H-pyrrolo[2,3-f]quinoline-2,7,9-tricarboxylate] | 0.8 mg/L | 16 mg/L | 
O=C(O)c1cc(C(=O)O)c2c(n1)c(O)c(O)c1cc(C(=O)O)[nH]c12 [Example 3, 4,5-Dihydroxy-1H-pyrrolo[2,3-f]quinoline-2,7,9-tricarboxylic Acid] | 12.5 mg/L | 48 mg/L | 
COC(=O)c1cc(C(=O)OC)c2c(n1)C(=O)C(OC)(OC)c1cc(C(=O)OC)[nH]c1-2 [Example 5, Trimethyl 4,4-Dimethoxy-5-oxo-4,5-dihydro-1H-pyrrolo[2,3-f]quinoline-2,7,9-tricarboxylate] | 0.8 mg/L | at least 1000 mg/L | lowest toxicity
C[S+](C)[O-] [comparative example 1, dimethyl sulfoxide, reference compound] | at least 1000 mg/L | 674 mg/L | 

— US10406151B2, “Method of inducing autophagy” (Mitsubishi Gas Chemical Company, Inc., priority 2016, dated 2019)
